Experimental data reported in paper PMC8896804 (Science Advances, 2022).

Assays:
[1] = tested on: platytocin receptor (PTR); type: cell-based; conditions: COS-7 cells transfected with ptr, cotreated with platytocin 90 min at 37°C; global Schild analysis, slope of 1; mean ± SEM, n = 4
[2] = tested on: S. pusilla; experiment: Survival after hyper-osmotic salinity exposure; type: in vivo, Stylochoplana pusilla; conditions: 10^−6 M OVTA, n = 45, Fig. 3B

## [d(CH2)5^1, Tyr(Me)^2, Thr^4, Orn^8, Tyr^9-NH2]–vasotocin [OVTA]
[1]
  pA2, block of platytocin-mediated IP1 accumulation: 6.99 ± 0.27
[2]
  hyperosmolality (70 ppt) resistance: Hyperosmolality (70 ppt) resistance is blocked by 10^−6 M OVTA
